Data as given in US20220133747A1, “ESTROGEN RECEPTOR INHIBITORS AND USES THEROF” (The Regents of the University of California, priority 2018, published 2022).
Entries after “also recorded” stand apart in the source; their conditions may differ.

Experiments:
[1] = clinic; cited from earlier work
ER = target: T1, ER (Homo sapiens, UniProt P03372); test: Specific [3H]estradiol-17β binding competition in MCF-7 breast cancer cells; conditions: MCF-7 cells, 10 nM
T1 construct: endogenous in cells; host or cells: MCF-7 human breast cancer cells in suspension (intact cells)
T1 sequence (P03372 1-595): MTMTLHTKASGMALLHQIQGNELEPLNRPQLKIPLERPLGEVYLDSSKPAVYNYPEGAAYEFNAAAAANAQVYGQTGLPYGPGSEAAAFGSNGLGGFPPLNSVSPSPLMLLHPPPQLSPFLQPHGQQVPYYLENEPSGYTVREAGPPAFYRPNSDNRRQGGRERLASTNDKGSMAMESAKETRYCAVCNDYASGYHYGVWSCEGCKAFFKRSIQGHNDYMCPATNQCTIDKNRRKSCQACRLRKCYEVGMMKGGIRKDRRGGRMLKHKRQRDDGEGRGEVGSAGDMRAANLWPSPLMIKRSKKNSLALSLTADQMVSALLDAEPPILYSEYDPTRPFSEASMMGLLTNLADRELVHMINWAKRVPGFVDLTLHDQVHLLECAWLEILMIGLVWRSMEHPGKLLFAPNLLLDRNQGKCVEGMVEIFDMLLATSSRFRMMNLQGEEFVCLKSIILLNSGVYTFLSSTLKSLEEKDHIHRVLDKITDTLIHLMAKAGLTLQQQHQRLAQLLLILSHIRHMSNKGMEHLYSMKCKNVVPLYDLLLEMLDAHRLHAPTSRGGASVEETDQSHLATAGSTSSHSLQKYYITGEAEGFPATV
Protocol: (§1) FIGS. 20A-20C show biologic activity of selected SERD candidates. […] ER-positive MCF-7 cells were treated in phenol-red free RPMI 1640 without FBS and containing vehicle control (CON) or 100 nM concentrations of either fulvestrant (FX) or antiestrogens 105, 109, 121, 140, 151, 160 or SERD128 in vitro. After 4 hours, cells were harvested and processed for PAGE and Western immunoblots using ERα antibody (1D5, Thermofisher Scientific). RPL13A was used as a loading control. […] Cells were dosed with either E2 alone or with SERDs combined with E2 in phenol redfree medium with 0.1% dextran-coated charcoal-treated FBS in luminometer plates. Data are presented as relative light units (RLU) relative to that of E2 alone in three replicate assays (4 wells per replicate) f SEM. Treatment with E2 alone induced a 12-fold induction of ER-dependent luciferase activity quantified as RLU relative to vehicle control-treated samples.
Specific estradiol-17β (E2) binding and competition for binding by antiestrogen SERD128 or fulvestrant was assessed in human MCF-7 breast cancer cells using methods as described before. […] Competitive ligand binding to ER-positive MCF-7 cells is detected by the ability of a test compound to displace labeled estradiol-17β from the cells in vitro.

[2] = tested on: ER-dependent transcription; test: ERE-luciferase T47D reporter, ER-dependent transcriptional activity; type: cell-based, human; conditions: T47D ERE-luciferase, 10 nM with 2 nM 17β-estradiol
Protocol: as §1
A stable ER-positive T47D ERE luciferase reporter cell line, in which the ERE and the reporter luciferase gene are consistently expressed in the cell line were used in this study (Signosis). […] Lysate was mixed 1:1 with luciferase substrate (Promega), and luminescence was measured using a MLX microtiter plate luminometer (Dynex) and quantified as relative light units (RLU) according to established procedures. Total protein was quantified using BioRad Protein Assay (BioRad).

ZR75 cells = test: Cell proliferation assay, ZR75; type: cell-based, human; conditions: ZR75, 10 nM with 2 nM estradiol-17β, 48 hr
[3] = tested on: MCF-7 human breast tumor xenografts; test: MCF-7 human breast tumor xenografts in nude mice; type: in vivo; conditions: 15 and 75 mg/kg once a day by oral gavage for 28 days

SMILES	bioavailability [1]	competition for specific [3H]estradiol-17β (E2) binding (ER)	ER-dependent luciferase activity (RLU relative to E2 alone) [2]	cell proliferation (% of estradiol-treated controls) (ZR75 cells)	tumor growth (tumor volume) [3]
C[C@]12CC[C@@H]3c4ccc(O)cc4C[C@@H](CCCCCCCCC[S+]([O-])CCCC(F)(F)C(F)(F)F)[C@H]3[C@@H]1CC[C@@H]2O (some centres unmarked) [fulvestrant, reference compound]	very low bioavailability				
C[C@]12C[C@H](Oc3ccc(N)c(C(F)(F)F)c3)[C@@H]3c4ccc(O)cc4CC[C@H]3[C@@H]1CC[C@@H]2O [SERD128, (8S,9S,11S,13S,14S,17S)-11-(4-Amino-3-(trifluoromethyl)phenoxy)-13-methyl-7,8,9,11,12,13,14,15,16,17-decahydro-6H-cyclopenta[a]phenanthrene-3,17-diol]		comparable to that of the pure antiestrogen fulvestrant	comparable to that of the pure antiestrogen fulvestrant	significantly blocked proliferation; also recorded: significantly inhibited	inhibits growth of human breast tumor xenografts in vivo; also recorded: significantly inhibited tumor growth in MCF-7 xenograft models in a dose-dependent manner; also recorded: inhibit the growth of human MCF-7 breast tumor xenografts in vivo in a dose-dependent manner; also recorded: potent biologic action in blocking the progression of breast tumors in vivo via an oral route of administration
